In US10238621B2, “9,10-α,α-OH-taxane analogs and methods for production thereof” (priority 2003, dated 2019):

Tests used:
Type in all cases: cell-based
[1] = tested on: Breast Cancer MCF-7 NCI-AR; test: Inhibition of cell growth, Breast Cancer MCF-7 NCI-AR (MDR +, tubulin wild type); settings: for Inhibition: MCF-7 NCI-AR
[2] = tested on: Ovarian Carcinoma 1A9PTX10; test: Inhibition of cell growth, Ovarian Carcinoma 1A9PTX10 (MDR +, tubulin mutant)
[3] = tested on: Neuroblastoma SK-N-AS; test: Inhibition of cell growth, Neuroblastoma SK-N-AS (MDR −, tubulin wild type)
[4] = tested on: Squamous Cell Carcinoma FADU; test: Inhibition of cell growth, Squamous Cell Carcinoma FADU (MDR −, tubulin wild type); settings: concentration 0.05 ug/mL
[5] = tested on: MDR sensitive cancer cell lines; test: Inhibition of cell growth against MDR sensitive cancer cell lines; settings: result in words
[6] = Homo sapiens, MCF7, MCF-7 NCI-AR, concentration 0.5 ug/mL

## CC(=O)O[C@H]1C(=O)[C@@]2(C)[C@H]([C@H](OC(=O)c3ccccc3)[C@]3(O)C[C@H](OC(=O)[C@H](O)[C@@H](NC(=O)c4ccccc4)c4ccccc4)C(C)=C1C3(C)C)[C@]1(OC(C)=O)CO[C@@H]1C[C@@H]2O [Paclitaxel, reference compound]
[1]; concentration 40 ug/mL
  Inhibition: 55%
[2]; 1A9PTX10, concentration 5 ug/mL
  Inhibition: 55%
[3]; concentration 0.1 ug/mL
  Inhibition: 54%
[4]
  Inhibition: 47%

## C=CC1O[C@H]2C[C@H]3OC[C@@]3(OC(C)=O)[C@H]3[C@H](OC(=O)c4ccccc4)[C@]4(O)C[C@H](OC(=O)[C@H](O)[C@@H](NC(=O)c5ccccc5)c5ccccc5)C(C)=C([C@H](OC(C)=O)[C@H](O1)[C@]23C)C4(C)C (stereo partly drawn) [TPI 285]
[1]; concentration 0.5 ug/mL
  Inhibition: 41%
[1]; concentration 1.0 ug/mL
  Inhibition: 51%
[1]; concentration 2.0 ug/mL
  Inhibition: 85%
[5]
  inhibition of cell growth against MDR sensitive cancer cell lines: excellent inhibition of cell growth

## C=CC1O[C@H]2C[C@H]3OC[C@@]3(OC(C)=O)[C@H]3[C@H](OC(=O)c4ccccc4)[C@]4(O)C[C@H](OC(=O)[C@H](O)[C@H](CC(C)C)NC(=O)OC(C)(C)C)C(C)=C([C@H](OC(C)=O)[C@H](O1)[C@]23C)C4(C)C (stereo partly drawn) [TPI 287, 7,9-acrolein acetal-10-α-acetyl-2′-R,S-hydroxy-3′-S-isobutyl-3′-N-t-butoxy carbonyl taxane]
[1]; Homo sapiens, MCF7, MCF-7 NCI-AR, concentration 0.031 ug/mL
  inhibition at 0.031 µg/mL: 13%
[1]; Homo sapiens, MCF7, MCF-7 NCI-AR, concentration 0.061 ug/mL
  inhibition at 0.061 µg/mL: 22%
[1]; Homo sapiens, MCF7, MCF-7 NCI-AR, concentration 0.125 ug/mL
  inhibition at 0.125 µg/mL: 37%
[1]; Homo sapiens, MCF7, MCF-7 NCI-AR, concentration 0.25 ug/mL
  inhibition at 0.25 µg/mL: 47%
[1]; [6]
  inhibition at 0.5 µg/mL: 80%
[5]
  inhibition of cell growth against MDR sensitive cancer cell lines: excellent inhibition of cell growth
[2]; Homo sapiens, 1A9/ptx-10, 1A9PTX10, concentration 0.1 ug/mL
  inhibition at 0.1 µg/mL: 51%
[2]; Homo sapiens, 1A9/ptx-10, 1A9PTX10, concentration 0.2 ug/mL
  inhibition at 0.2 µg/mL: 85%
[3]; Homo sapiens, concentration 0.05 ug/mL
  inhibition at 0.05 µg/mL: 58%
[4]; Homo sapiens
  inhibition at 0.05 µg/mL: 56%

## C=CC1O[C@H]2C[C@H]3OC[C@@]3(OC(C)=O)[C@H]3[C@H](OC(=O)c4ccccc4)[C@]4(O)C[C@H](OC(=O)[C@H](O)[C@@H](NC(=O)c5ccccc5)c5ccccc5)C(C)=C([C@H](OC(C)=O)[C@H](O1)[C@]23C)C4(C)C (stereo partly drawn) [TPI 251]
[1]; [6]
  inhibition at 0.5 µg/mL: 45%
[1]; Homo sapiens, MCF7, MCF-7 NCI-AR, concentration 1.0 ug/mL
  inhibition at 1 µg/mL: 65%
[1]; Homo sapiens, MCF7, MCF-7 NCI-AR, concentration 2.0 ug/mL
  inhibition at 2 µg/mL: 94%
[5]
  inhibition of cell growth against MDR sensitive cancer cell lines: excellent inhibition of cell growth
[2]; Homo sapiens, 1A9/ptx-10, 1A9PTX10, concentration 0.25 ug/mL
  inhibition at 0.25 µg/mL: 93%
[2]; Homo sapiens, 1A9/ptx-10, 1A9PTX10, concentration 0.5 ug/mL
  inhibition at 0.5 µg/mL: 96%
